The record followed here is US9650389B2, “8-oxoprotoberberine derivative or pharmaceutically acceptable salt thereof, preparation method therefor and pharmaceutical composition for preventing or treating diseases associated with activity of NFAT5, containing same as active ingredient” (Korea Research Institute of Chemical Technology, priority 2013, dated 2017).

Like-named read-outs stand apart in the source and are kept apart here.

Assay [1] addresses T1, NFAT5 (Mus musculus, UniProt Q9WV30).
T1 construct: endogenous in cells; host or cells: RAW264.7
Nature of the assay: NFAT5 reporter screening (GFP, HCS) in LPS-treated Raw264.7 cells. In kind it is cell-based. The settings on record: for Inhibition rate of NFAT5 transcription (%): Raw264.7 reporter, LPS 1 μg/ml, 48 hours. The protocol:
To investigate whether or not the derivative of the present invention could inhibit the transcriptional activity of NFAT5, NFAT5 reporter screening was performed. A plasmid vector was constructed by eliminating CMV promoter sequence from the backbone and inserting NFAT5 binding site sequence ([…]) instead. Raw264.7 cells transfected with the vector were cultured in 10% FBS-PRMI (supplemented with 500 μg/ml G418). The cells were distributed in a 96-well plate at the density of 3×10^3 cells/well, followed by further culture for one more day. The cells were treated with LPS at the concentration of 1 μg/ml for 48 hours. Then, the cells were fixed and the expression level of GFP was measured by HCS fluorescence image (Thermo, ArrayScan^VTI).

Assay [2] relates to iNOS. Nature of the assay: Inhibition of LPS-induced iNOS induction in Raw264.7 cells (Griess reagent). In kind it is cell-based. The settings on record: Mus musculus, read-out: Inhibition rate of iNOS induction (%). As to the method:
To investigate whether or not the derivative of the present invention could inhibit iNOS inducement, Raw264.7 cells (mouse macrophages) were distributed in a 384-well plate at the density of 3×10^4 cells/well. The cells were treated with LPS at the concentration of 100 ng/ml, followed by culture at 37° C. for 24 hours. The concentration of […] increased in the medium was measured by using Griess reagent. The inhibition rate was calculated by mathematical formula based on the detected signals. The results are shown in Table 2. % inhibition=(mean value of sample−mean value of negative control)/(mean value of positive control −mean value of negative control)×100 [Mathematical Formula 1]
(The Griess reaction detects nitrite, a stable product of nitric oxide.)

Assay [3] has as its target T2, COX2 (Ovis aries, UniProt P79208).
T2 construct: purchased Cayman Co. 760111
T2 sequence (P79208 17-603): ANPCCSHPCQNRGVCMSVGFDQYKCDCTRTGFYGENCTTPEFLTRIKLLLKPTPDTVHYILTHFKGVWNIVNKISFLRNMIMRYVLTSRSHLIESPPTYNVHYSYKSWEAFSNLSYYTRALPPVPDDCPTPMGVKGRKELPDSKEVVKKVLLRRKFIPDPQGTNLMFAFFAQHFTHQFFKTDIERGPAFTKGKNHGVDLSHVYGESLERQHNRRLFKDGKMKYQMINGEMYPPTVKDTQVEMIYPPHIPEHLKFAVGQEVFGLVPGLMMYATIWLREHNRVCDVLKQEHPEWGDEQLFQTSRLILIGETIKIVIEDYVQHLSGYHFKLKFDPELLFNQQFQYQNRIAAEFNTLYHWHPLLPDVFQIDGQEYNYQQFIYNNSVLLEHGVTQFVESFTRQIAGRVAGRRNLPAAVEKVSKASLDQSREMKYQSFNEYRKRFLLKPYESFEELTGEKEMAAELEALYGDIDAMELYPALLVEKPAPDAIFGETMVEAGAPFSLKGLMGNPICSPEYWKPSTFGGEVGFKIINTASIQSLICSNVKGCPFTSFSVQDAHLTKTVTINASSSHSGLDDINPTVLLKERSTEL
Nature of the assay: COX inhibition, COX assay kit (Table 5). Format: biochemical. As to the method:
(§1) 10 μl of substrate and 10 μl of arachidonic acid were added thereto, followed by reaction for 10 minutes in the darkness. Then, OD590 was measured.

The target of assay [4] is T3, COX1 (Ovis aries, UniProt P05979).
T3 construct: purchased Cayman Co. 760111
T3 sequence (P05979 25-600): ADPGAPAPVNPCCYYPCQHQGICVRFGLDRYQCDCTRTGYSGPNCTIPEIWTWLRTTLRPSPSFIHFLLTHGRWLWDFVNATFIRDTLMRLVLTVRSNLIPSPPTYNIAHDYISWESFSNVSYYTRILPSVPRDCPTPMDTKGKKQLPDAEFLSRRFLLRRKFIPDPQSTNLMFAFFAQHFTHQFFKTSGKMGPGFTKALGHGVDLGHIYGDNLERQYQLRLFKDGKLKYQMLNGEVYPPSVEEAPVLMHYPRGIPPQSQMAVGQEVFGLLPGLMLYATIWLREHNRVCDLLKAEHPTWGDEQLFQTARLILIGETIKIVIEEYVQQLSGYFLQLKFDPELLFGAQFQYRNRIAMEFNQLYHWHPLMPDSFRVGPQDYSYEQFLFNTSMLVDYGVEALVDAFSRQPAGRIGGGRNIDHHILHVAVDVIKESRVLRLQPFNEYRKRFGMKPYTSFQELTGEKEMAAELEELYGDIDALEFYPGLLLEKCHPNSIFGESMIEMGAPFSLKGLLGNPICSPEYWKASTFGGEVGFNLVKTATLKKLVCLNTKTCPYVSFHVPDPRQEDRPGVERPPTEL
Nature of the assay: COX inhibition, COX assay kit (Table 4). Format: biochemical. The protocol:
as §1

The mark [5] stands for this setting: Conc. 0.16 μM, two values per substance.
[6] abbreviates: Conc. 0.16 μM, two values per substance, read-out: inhibition rate.
The mark [7] stands for this setting: Conc. 0.8 μM, two values per substance.
Where [8] appears, read: Conc. 0.8 μM, two values per substance, read-out: inhibition rate.
Setting [9] is: Conc. 4 μM, two values per substance.
[10] abbreviates: Conc. 4 μM, two values per substance, read-out: inhibition rate.
Setting [11] is: Conc. 20 μM, two values per substance.
The mark [12] stands for this setting: Conc. 20 μM, two values per substance, read-out: inhibition rate.
[13] abbreviates: Conc. 100 μM, two values per substance.
[14] abbreviates: Conc. 100 μM, two values per substance, read-out: inhibition rate.
Where [15] appears, read: 1 μM, Raw264.7, LPS 100 ng/ml, 24 hours.
Setting [16] is: 10 μM, Raw264.7, LPS 100 ng/ml, 24 hours.

T1 sequence (Q9WV30 whole entry): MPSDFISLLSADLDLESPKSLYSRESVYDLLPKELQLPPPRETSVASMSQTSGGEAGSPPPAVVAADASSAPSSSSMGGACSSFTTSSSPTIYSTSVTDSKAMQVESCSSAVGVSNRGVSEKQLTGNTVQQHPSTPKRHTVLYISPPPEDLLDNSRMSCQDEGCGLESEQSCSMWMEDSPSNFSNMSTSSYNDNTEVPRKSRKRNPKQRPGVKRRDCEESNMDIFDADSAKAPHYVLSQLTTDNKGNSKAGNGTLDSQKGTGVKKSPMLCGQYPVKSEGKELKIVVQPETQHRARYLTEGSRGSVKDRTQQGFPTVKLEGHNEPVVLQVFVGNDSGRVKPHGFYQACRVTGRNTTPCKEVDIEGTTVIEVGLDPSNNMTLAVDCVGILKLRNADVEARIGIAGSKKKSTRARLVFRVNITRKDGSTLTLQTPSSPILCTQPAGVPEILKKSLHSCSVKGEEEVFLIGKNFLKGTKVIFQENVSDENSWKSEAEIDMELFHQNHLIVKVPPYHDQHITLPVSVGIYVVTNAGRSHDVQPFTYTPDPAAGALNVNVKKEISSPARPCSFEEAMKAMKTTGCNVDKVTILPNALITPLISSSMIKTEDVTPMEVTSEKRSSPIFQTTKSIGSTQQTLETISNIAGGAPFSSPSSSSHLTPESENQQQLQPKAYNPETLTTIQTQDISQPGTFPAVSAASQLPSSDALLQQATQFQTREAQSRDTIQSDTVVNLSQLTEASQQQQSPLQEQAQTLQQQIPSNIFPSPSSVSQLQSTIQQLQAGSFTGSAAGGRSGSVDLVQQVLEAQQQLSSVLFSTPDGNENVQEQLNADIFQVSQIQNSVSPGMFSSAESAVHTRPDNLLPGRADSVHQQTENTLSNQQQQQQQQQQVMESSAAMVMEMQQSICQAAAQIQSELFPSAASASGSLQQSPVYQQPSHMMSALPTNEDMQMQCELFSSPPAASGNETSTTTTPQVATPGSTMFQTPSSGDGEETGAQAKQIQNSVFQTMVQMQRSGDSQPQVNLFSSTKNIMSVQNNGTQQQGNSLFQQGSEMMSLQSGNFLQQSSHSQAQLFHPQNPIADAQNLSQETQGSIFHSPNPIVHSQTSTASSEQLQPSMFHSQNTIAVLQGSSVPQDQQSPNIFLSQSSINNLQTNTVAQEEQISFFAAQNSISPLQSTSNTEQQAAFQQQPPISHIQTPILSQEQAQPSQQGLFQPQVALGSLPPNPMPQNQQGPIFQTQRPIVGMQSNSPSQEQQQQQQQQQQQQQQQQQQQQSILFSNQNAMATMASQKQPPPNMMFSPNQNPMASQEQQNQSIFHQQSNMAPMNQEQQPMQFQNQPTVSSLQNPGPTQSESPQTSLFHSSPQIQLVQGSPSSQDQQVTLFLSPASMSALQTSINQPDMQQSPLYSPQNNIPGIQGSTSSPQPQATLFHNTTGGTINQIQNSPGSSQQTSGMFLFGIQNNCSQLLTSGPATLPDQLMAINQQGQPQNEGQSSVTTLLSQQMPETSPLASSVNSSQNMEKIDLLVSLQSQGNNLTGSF

Take `COc1ccc2c(Cc3nc4ccccc4[nH]3)c3n(c(=O)c2c1OC)CCc1cc2c(cc1-3)OCO2` [Example 7, 13-((1H-benzo[d]imidazole-2-yl)methyl)-9,10-dimethoxy-5,6-dihydro-[1,3]dioxolo [4,5-g]isoquinolino[3,2-a]isoquinoline-8(6H)-one]: the “Inhibition rate of NFAT5 transcription (%)” value (shortened to “Inhibition rate … (%)”) in assay [1] (1 μM) is 18.5%. Also, the “Inhibition rate … (%)” value in assay [1] (10 μM) came to 28.2%. For the same compound, in assay [2] (RAW264.7, 24 h), the inhibition – broadly, the drop in the measured response relative to a control, in per cent – at 1 µM was found to be 13.4% and the inhibition at 10 µM was determined as 100%.
Regarding `COc1ccc2cc3[n+](cc2c1OC)CCc1cc2c(cc1-3)OCO2` [Berberine], in assay [3] (Conc. 0.032 μM, two values per substance, read-out: inhibition rate), the inhibition at 0.032 µM turned out to be 0%. The inhibition rate in assay [3] (setting [5]) was found to be 7.9; in assay [3] (setting [7]), 19.8; in assay [3] (setting [9]), 29.9; in assay [3] (setting [11]), 39.3; in assay [3] (setting [13]) it was 53.7; in assay [4] (setting [5]), 5.4. For the same compound, the inhibition rate stood at 13.4 in assay [4] (setting [7]), 20.4 in assay [4] (setting [9]), 31.4 in assay [4] (setting [11]) and 51.5 in assay [4] (setting [13]). Moreover, the figures for the inhibition at 0.16 µM in assay [3] (setting [6]) and in assay [4] (setting [6]) were 8.8% and 3.3%, respectively. Also, the values for the inhibition at 0.8 µM in assay [3] (setting [8]) and in assay [4] (setting [8]) were 17.2% and 12.4%, respectively. Further, the inhibition at 4 µM in assay [3] (setting [10]) turned out to be 28.2%; in assay [4] (setting [10]), 18.4%. Further, the inhibition at 20 µM is 41% in assay [3] (setting [12]) and 24.4% in assay [4] (setting [12]). In addition, the inhibition at 100 µM came out at 50.3% in assay [3] (setting [14]) and 53.5% in assay [4] (setting [14]). The IC50 (usually the point on the concentration scale where inhibition reaches its midpoint) in assay [3] (Table 5) stood at 58.4 µM; in assay [4] (Table 4) it was 96.3 µM.
In the case of `COc1ccc2c(C(=O)c3ccccc3F)c3n(c(=O)c2c1OC)CCc1cc2c(cc1-3)OCO2` [Example 9, 13-(2-fluorobenzoyl)-9,10-dimethoxy-5H-[1,3]dioxolo[4,5-g]isoquinolino[3,2-a]isoquinoline-8(6H)-one], the “Inhibition rate … (%)” value in assay [1] (1 μM) was determined as 0.5%; in assay [1] (10 μM), 16.4%. Moreover, the inhibition at 1 µM in assay [2] (setting [15]) came out at 65.6%. Also, the inhibition at 10 µM in assay [2] (setting [16]) is 117%.
For `COc1ccc2c(C(=O)Nc3ccccc3F)c3n(c(=O)c2c1OC)CCc1cc2c(cc1-3)OCO2` [Example 13, N-(2-fluorophenyl)-9,10-dimethoxy-8-oxo-6,8-dihydro-5H-[1,3]dioxolo[4,5-g]isoquinolino[3,2-a]isoquinoline-13-carboxamide], in that order: −11.1%, −29.9%, 70.8% and 106%.
For `COc1ccc2c(C(N)=O)c3n(c(=O)c2c1OC)CCc1cc2c(cc1-3)OCO2` [Example 12, 9,10-dimethoxy-8-oxo-6,8-dihydro-5H-[1,3]dioxolo[4,5-g]isoquinolino[3,2-a]isoquinoline-13-carboxamide], in that order: −2.9%, −5.2%, 35.4% and 107%.
Regarding `COc1ccc2c(Cc3ccc(F)cc3F)c3n(c(=O)c2c1OC)CCc1cc2c(cc1-3)OCO2` [Example 2, 13-(2,4-difluorobenzyl)-9,10-dimethoxy-5H-[1,3]dioxolo[4,5-g]isoquinolino[3,2-a]isoquinoline-8(6H)-one], the “Inhibition rate … (%)” value in assay [1] (1 μM) was 13.6%; in assay [1] (10 μM), 24.4%. Besides, the inhibition at 1 µM in assay [2] (setting [15]) is 56.8%. Besides, the inhibition at 10 µM in assay [2] (setting [16]) turned out to be 95.2%.
For `COc1ccc2c(C(=O)O)c3n(c(=O)c2c1OC)CCc1cc2c(cc1-3)OCO2` [Example 11, 9,10-dimethoxy-8-oxo-6,8-dihydro-5H-[1,3]dioxolo[4,5-g]isoquinolino[3,2-a]isoquinoline-13-carboxylic acid], the figures for the “Inhibition rate … (%)” value in assay [1] (1 μM) and in assay [1] (10 μM) were −10.4% and −12.8%, respectively. Further, the inhibition at 1 µM in assay [2] (setting [15]) was -17.2%. The inhibition at 10 µM in assay [2] (setting [16]) came to 118%.
For `COc1ccc2c(Cc3ccccc3C)c3n(c(=O)c2c1OC)CCc1cc2c(cc1-3)OCO2` [Example 4, 9,10-dimethoxy-13-(2-methylbenzyl)-5,6-dihydro-[1,3]dioxolo[4,5-g]isoquinolino [3,2-a]isoquinoline-8(6H)-one], in that order: 7.4%, 88.2%, 23.2% and 97.9%.
For `COc1ccccc1Cc1c2n(c(=O)c3c(OC)c(OC)ccc13)CCc1cc3c(cc1-2)OCO3` [Example 5, 9,10-dimethoxy-13-(2-methoxybenzyl)-5,6-dihydro-[1,3]dioxolo[4,5-g]isoquinolino [3,2-a]isoquinoline-8(6H)-one], in that order: 24.2%, 77.6%, 29% and 98.3%.
As for `CCOC(=O)c1c2n(c(=O)c3c(OC)c(OC)ccc13)CCc1cc3c(cc1-2)OCO3` [Example 10, ethyl9,10-dimethoxy-8-oxo-6,8-dihydro-5H-[1,3]dioxolo[4,5-g]isoquinolino[3,2-a]isoquinoline-13-carboxylate], the “Inhibition rate … (%)” value in assay [1] (1 μM) is reported as −3.8%. Further, the “Inhibition rate … (%)” value in assay [1] (10 μM) was 53.7%. The “inhibiting NFAT5 activity (in words)” value in assay [1] (Table 3 and FIG. 1) is “remarkably excellent in inhibiting NFAT5 activity”. Also, in assay [2] (RAW264.7, 24 h), the inhibition at 1 µM was found to be 53.9% and the inhibition at 10 µM stood at 99.2%.
